What was measured:
adenosine A1 receptor = experiment: Adenosine-induced bronchoconstriction (PC50 Adenosine) in allergic rabbits; type: in vivo
Procedure: A fortuitous hoology between the rabbit and human DNA sequences within the adenosine A1 gene overlapping the initiation codon permitted the use of the phosphorothioate anti-sense oligonucleotides initially designed for use against the human adenosine A1 receptor in a rabbit model. Neonatal New Zealand white Pasteurella-free rabbits were immunized intraperitoneally within 24 hours of birth with 312 antigen units/ml house dust mite (D. farinae) extract (Berkeley Biologicals, Berkeley, Calif.), mixed with 10% kaolin. Immunizations were repeated weekly for the first month and then biweekly for the next 2 months. At 3-4 months of age, eight sensitized rabbits were anesthetized and relaxed with a mixture of ketamine hydrochloride (44 mg/kg) and acepromazine maleate (0.4 mg/kg) administered intramuscularly. The rabbits were then laid supine in a comfortable position on a small molded, padded animal board and intubated with a 4.0-mm intratracheal tube (Mallinkrodt, Inc., Glens Falls, N.Y.). A polyethylene catheter of external diameter 2.4 mm with an attached latex balloon was passed into the esophagus and maintained at the same distance (approximately 16 cm) from the mouth throughout the experiments. The intratracheal tube was attached to a heated Fleisch pneumotachograph (size 00; DOM Medical, Richmond, Va.), and flow was measured using a Validyne differential pressure transducer (Model DP-45161927; Validyne Engineering Corp., Northridge, Calif.) driven by a Gould carrier amplifier (Model 11-4113; Gould Electronic, Cleveland, Ohio). The esophageal balloon was attached to one side of the differential pressure transducer, and the outflow of the intratracheal tube was connected to the opposite side of the pressure transducer to allow recording of transpulmonary pressure. Flow was integrated to give a continuous tidal volume, and measurements of total lung resistance (RL) and dynamic compliance (Cdyn) were calculated at isovolumetric and flow zero points, respectively, using an automated respiratory analyzer (Model 6; Buxco, Sharon, Conn.). Animals were randomized and on Day 1 pretreatment values for PC50 were obtained for aerosolized adenosine. Anti-sense (HAdA1AS) or mismatched control (HAdA1MM) oligonucleotides were dissolved in sterile physiological saline at a concentration of 5000 μg (5 mg) per 1.0 ml. […] Aerosols of either saline, adenosine, or anti-sense or mismatch oligonucleotides were generated by an ultrasonic nebulizer (DeVilbiss, Somerset, Pa.), producing aerosol droplets 80% of which were smaller than 5:m in diameter. In the first arm of the experiment, four randomly selected allergic rabbits were administered anti-sense oligonucleotide and four the mismatched control oligonucleotide. On the morning of the third day, PC50 values (the concentration of aerosolized adenosine in mg/ml required to reduce the dynamic compliance of the bronchial airway 50% from the baseline value) were obtained and compared to PC50 values obtained for these animals prior to exposure to oligonucleotide. Following a 1 week interval, animals were crossed over, with those previously administered mismatch control oligonucleotide now administered anti-sense oligonucleotide, and those previously treated with anti-sense oligonucleotide now administered mismatch control oligonucleotide. Treatment methods and measurements were identical to those employed in the first arm of the experiment. […] For the purpose of calculation, PC50 values for these animals were set at 20 mg/ml. The values given therefore represent a minimum figure for anti-sense effectiveness. Actual effectiveness was higher.
Aerosols of either adenosine (0-20 mglnml), or anti-sense or one of two mismatch oligonucleotides (5 mg/ml) were separately prepared with an ultrasonic nebulizer (Model 646, DeVilbiss, Somerset, Pa.), which produced aerosol droplets, 80% of which were smaller than 5:m in diameter. […]

adenosine A2 receptors = experiment: Adenosine A2 receptor binding ([3H]CGS-21680) in airway smooth muscle membranes of treated rabbits; parameters: species or system rabbit; details: airway smooth muscle membranes after cross-over experiment; mean (n = 8) ± SEM
Text: At the conclusion of the cross-over experiment of Example 3 above, airway smooth muscle from all rabbits was quantitatively analyzed for adenosine A1 receptor number. As a control for the specificity of the anti-sense oligonucleotide, adenosine A2 receptors, which should not have been affected, were also quantified. Airway smooth muscle tissue was dissected from each rabbit and a membrane fraction prepared according to the method of Kleinstein et al. (Kleinstein, J. and Glossrnann, H., Naunyn-Schrniedeberg's Arch Pharmacol. 305: 191-200 (1978)), the relevant portion of which is hereby incorporated in its entirety by reference, with slight modifications. Crude plasma membrane preparations were stored at −70 EC until the time of assay. Protein content was determined by the method of Bradford (M. Bradford, Anal. Biochem. 72, 240-254 (1976), the relevant portion of which is hereby incorporated in its entirety by reference). Frozen plasma membranes were thawed at room temperature and were incubated with 0.2 U/ml adenosine deaminase for 30 minutes at 37 EC to remove endogenous adenosine. The binding of [^3H] […] CGS-21680 ([…]) was measured as previously described by Ali et al. (Ali, S. et al., J. Pharmacol. Exp. Ther. 268, Ara. J. Physiol 266, L271-277 (1994), the relevant portion of which is hereby incorporated in its entirety by reference). […]

**Q.** Which “effect on PC50 Adenosine value” (adenosine A1 receptor; allergic rabbits, cross-over experiment, 20 mg total aerosolized oligo) does the source give for “5′-GTAGCAGGCGGGGATGGGGGC-3′ [HAdA1MM1, reference compound]” here?
**A.** No effect

**Q.** What about the “PC50 Post Oligonucleotide” value (adenosine A1 receptor; asthmatic rabbits, approx. 5 mg aerosolized oligo twice daily for two days, third day, non-responders set at 20 mg/ml, mean (n = 8) ± SEM) of the same substance?
**A.** 5.16 ± 1.03 mg/mL

**Q.** And the “PC50 Pre Oligonucleotide” value (adenosine A1 receptor; asthmatic rabbits, baseline before oligonucleotide, aerosolized adenosine reducing dynamic compliance 50%, mean (n = 8) ± SEM)?
**A.** 3.56 ± 1.02 mg/mL

**Q.** What about the toxicity (adenosine A1 receptor; rabbits receiving inhaled oligonucleotide) of the same substance?
**A.** No toxicity was observed

**Q.** And the “A2-Specific Binding” value (adenosine A2 receptors)?
**A.** 302 ± 22
